“Also recorded” adds a separate entry of the source. Like-named read-outs stand apart in the source and are kept apart here.
Key:
[1] = system: GABAA, benzodiazepine, kainate, AMPA, NMDA receptors, strychnine independent binding site at NMDA receptors, muscarinic cholinergic, α1- and α2-adrenergic …; experiment: Receptor selectivity assays at 1 μM; conditions: concentration of 1 μM
Description: […]. The incubation is terminated by filtration through GF/B Whatman glass fibre filters. […]. The compound is therefore selective for GABAB receptors. […].

[2] = target: T1, recombinant GABABR1a receptors in membranes from COS 1 cells (Rattus norvegicus, UniProt Q9Z0U4); experiment: biochemical; assay type: binding
T1 construct: The protein expressed from the 4,376 bp cDNA clone has an apparent molecular mass of about 120 kDa; expressed in transfected cells; host or cells: COS1 cells, transient transfection with the cDNA clone in pcDNAI

[3] = target: GABAB receptors in membranes from rat cerebral cortex (Rattus norvegicus, UniProt Q9Z0U4); experiment: biochemical; assay type: binding
[4] = system: native GABAB receptors (130K and 100K proteins); conditions: for competition with / displacement of [125I]CGP71872 at native receptors: FIG. 4b; for [125I]CGP71872 labelling in the presence of excess unlabelled antagonist: 1 μM (10^−6 M) competitor
Description: The incubation is terminated by centrifugation at 20 000×g for 10 min at 4° C. This step removed free unbound photoaffinity label. […] The suspension is centrifuged at 20 000×g for 10 min and resuspended at a concentration of 8 mg/ml protein in buffer. […] The labelled membranes could be stored at −80° C.

GABABR1a = target: T2, GABABR1a (Rattus norvegicus, UniProt Q9Z0U4); experiment: Forskolin-stimulated cAMP accumulation in HEK293 cells stably expressing GABABR1a; assay type: cell-based
T2 construct: The ability of GABABR1a stably expressed in HEK293 cells to reduce forskolin-stimulated cAMP accumulation is analysed; expressed in transfected cells
Description: HEK293 cells stably expressing GABABR1a are treated with 20 μM forskolin (Fsk) to stimulate cAMP formation (100%). […] Bars represent mean values+S.E.M. of at least three independent experiments performed in quadruplicate.
GABAB receptors are described to inhibit adenylate cyclase activity, stimulate phospholipase A2, activate K^+-channels, inactivate voltage-dependent Ca^2+-channels and to modulate inositol phospholipid hydrolysis. As GABABR1a and -b have identical sequence in all domains predicted to be intracellular they are expected to be able to couple to the same effector systems. […] The ability of GABABR1a stably expressed in HEK293 cells to reduce forskolin-stimulated cAMP accumulation is analysed (FIG. 5). We chose concentrations of forskolin and L-baclofen that should produce a maximal effect.

[5] = system: non-transfected HEK293 cells; experiment: Forskolin-stimulated cAMP formation in untransfected HEK293 cells (control); assay type: cell-based

T2 sequence (Q9Z0U4 20-960): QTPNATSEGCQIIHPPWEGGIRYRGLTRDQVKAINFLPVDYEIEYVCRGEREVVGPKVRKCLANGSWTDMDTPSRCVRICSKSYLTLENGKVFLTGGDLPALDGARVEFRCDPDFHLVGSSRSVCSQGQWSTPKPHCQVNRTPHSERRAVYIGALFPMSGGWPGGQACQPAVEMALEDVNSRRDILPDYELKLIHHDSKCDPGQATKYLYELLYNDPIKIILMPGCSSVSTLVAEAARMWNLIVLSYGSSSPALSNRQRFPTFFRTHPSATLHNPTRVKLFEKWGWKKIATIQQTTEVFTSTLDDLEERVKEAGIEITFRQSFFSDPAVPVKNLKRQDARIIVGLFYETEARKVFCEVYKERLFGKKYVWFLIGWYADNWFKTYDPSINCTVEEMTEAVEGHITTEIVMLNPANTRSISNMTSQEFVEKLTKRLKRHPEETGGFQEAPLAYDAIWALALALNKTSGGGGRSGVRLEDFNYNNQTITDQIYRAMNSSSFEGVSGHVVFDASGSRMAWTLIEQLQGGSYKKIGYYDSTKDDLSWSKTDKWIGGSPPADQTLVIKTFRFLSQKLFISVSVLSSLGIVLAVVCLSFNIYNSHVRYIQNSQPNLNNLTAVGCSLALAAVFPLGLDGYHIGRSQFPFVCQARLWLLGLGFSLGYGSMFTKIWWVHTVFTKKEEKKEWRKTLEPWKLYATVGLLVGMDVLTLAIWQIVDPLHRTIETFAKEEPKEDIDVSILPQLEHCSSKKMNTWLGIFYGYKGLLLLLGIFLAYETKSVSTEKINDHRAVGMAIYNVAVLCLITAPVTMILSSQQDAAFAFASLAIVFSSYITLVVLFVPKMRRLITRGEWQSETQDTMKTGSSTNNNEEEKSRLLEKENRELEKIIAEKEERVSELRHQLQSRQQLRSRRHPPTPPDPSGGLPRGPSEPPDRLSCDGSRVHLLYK
T1 sequence (Q9Z0U4 20-960): as above
GABAB receptors in membranes from rat cerebral cortex, sequence (Q9Z0U4 164-960 limits assumed): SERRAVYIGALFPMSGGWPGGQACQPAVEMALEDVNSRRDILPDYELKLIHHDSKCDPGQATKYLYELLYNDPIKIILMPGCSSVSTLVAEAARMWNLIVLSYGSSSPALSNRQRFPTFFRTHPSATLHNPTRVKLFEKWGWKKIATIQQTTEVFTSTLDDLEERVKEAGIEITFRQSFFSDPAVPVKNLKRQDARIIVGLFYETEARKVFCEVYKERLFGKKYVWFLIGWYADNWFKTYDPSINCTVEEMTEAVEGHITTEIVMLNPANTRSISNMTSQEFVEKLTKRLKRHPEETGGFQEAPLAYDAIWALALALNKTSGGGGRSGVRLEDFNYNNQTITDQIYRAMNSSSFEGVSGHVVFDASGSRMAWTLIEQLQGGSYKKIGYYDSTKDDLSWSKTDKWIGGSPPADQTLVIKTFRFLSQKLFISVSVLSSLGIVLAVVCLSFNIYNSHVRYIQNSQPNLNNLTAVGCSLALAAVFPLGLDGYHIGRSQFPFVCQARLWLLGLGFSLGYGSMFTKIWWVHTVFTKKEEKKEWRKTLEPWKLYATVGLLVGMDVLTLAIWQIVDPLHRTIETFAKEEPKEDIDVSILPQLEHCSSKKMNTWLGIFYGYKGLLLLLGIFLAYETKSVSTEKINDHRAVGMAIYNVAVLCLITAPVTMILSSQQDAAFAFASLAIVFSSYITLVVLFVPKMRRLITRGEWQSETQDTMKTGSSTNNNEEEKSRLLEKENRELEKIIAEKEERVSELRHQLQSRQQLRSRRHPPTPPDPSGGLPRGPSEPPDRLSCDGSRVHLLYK
GABAB receptors in membranes from rat cerebral cortex, sequence (O88871 41-940, further chain): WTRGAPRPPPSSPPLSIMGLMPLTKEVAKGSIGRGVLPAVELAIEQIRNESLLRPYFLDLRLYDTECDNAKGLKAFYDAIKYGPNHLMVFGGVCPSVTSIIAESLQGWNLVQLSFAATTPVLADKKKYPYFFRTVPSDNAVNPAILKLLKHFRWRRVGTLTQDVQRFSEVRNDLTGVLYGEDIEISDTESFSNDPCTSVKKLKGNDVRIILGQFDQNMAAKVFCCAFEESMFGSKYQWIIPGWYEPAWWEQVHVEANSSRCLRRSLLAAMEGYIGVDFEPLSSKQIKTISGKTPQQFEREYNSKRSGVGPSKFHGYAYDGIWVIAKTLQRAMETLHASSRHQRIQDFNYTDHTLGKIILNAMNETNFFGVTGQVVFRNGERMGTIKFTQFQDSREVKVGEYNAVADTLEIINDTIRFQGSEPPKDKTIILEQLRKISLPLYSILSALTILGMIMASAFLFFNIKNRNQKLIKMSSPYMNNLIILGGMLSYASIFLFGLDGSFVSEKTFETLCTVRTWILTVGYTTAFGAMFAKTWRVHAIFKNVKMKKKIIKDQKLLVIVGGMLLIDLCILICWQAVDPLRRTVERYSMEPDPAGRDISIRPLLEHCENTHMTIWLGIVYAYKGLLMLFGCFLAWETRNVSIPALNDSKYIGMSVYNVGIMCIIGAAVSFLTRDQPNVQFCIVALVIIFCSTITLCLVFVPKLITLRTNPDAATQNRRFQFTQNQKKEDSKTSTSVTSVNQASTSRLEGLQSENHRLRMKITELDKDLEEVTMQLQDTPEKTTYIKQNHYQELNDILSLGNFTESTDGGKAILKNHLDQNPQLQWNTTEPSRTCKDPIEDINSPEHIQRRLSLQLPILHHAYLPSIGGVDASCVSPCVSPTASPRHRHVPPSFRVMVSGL

C[C@@H](NC[C@H](O)CP(=O)(O)CCCCCNC(=O)CCc1ccc(O)c(I)c1)c1cccc(C(=O)O)c1 [CGP 64213]
activity in other receptor assays [1]: inactive

CCOC(OCC)P(=O)(O)CCCN [CGP 35348]
IC50 [2]: 20 µM
IC50 [3]: 9.3 µM
competition with / displacement of [125I]CGP71872 at native receptors [4]: effective displacers

pertussis toxin
effect of preincubation on the L-baclofen response / modulation of adenylate cyclase (GABABR1a; 10 ng/ml for 15–20 h): sensitive; also recorded: completely abolishes the effect of L-baclofen

NCCC[PH](=O)O [CGP 27492 (APPA), 3-aminopropyl-phosphinic acid]
competition with / displacement of [125I]CGP71872 at native receptors [4]: compete

C[C@H](NC[C@H](O)CP(=O)(O)CC1CCCCC1)c1ccc(Cl)c(Cl)c1 [CGP 54626A]
IC50 ([2]; recombinant GABABR1a expressed in COS1 cells, read-out: Inhibition of [125I]CGP 64213 binding, COS1 cells IC50): 0.0016 µM
effect on the L-baclofen inhibition of cAMP accumulation (GABABR1a; 10 μM CGP54626A (FIG. 5), 300 μM L-baclofen): antagonised
[125I]CGP71872 labelling in the presence of excess unlabelled antagonist [4]: no radioactivity is bound to the membranes
[125I]CGP71872 labelling in the presence of excess unlabelled antagonist ([4]; listed as CGP54626A): inhibited
competition with / displacement of [125I]CGP71872 at native receptors [4]: effective displacers

NC[C@H](CC(=O)O)c1ccc(Cl)cc1 [L-baclofen]
inhibition of forskolin-stimulated cAMP formation in untransfected cells [5]: does not inhibit; also recorded: No L-baclofen response

Reference: patent US7119189B2, “Metabotropic GABA [B] receptors, receptor-specific ligands and their uses” (Novartis AG, priority 1997, dated 2006)
